This note sets out measurements from patent US20250041278A1, “TLR8 AGONIST FOR MODULATING IMMUNE RESPONSE” (The Children's Medical Center Corporation, priority 2021, published 2025).

Test [1] deals with null HEK cells. Put plainly: HEK-Null reporter cell line (reporter gene only). It counts as cell-based, human. As to conditions: negative control cells, even at higher concentrations. The method, then: FIGS. 3A-3E. PVP-179 is a TLR8 agonist. FIG. 3A: PVP-179 was sent to InvivoGen for PRR ligand screening service. Various cells lines were utilized to screen for PVP-179-induced ([…]) activation of TLRs, NOD1/2, RIG-I/MDA-5, Dectin-1 or Mincle receptor. The heat-map depicts percentage activity compared to the positive control for each receptor. FIG. 3B: PVP-179 induced activity (% activity compared to the positive control: CL075 at 1 μg/mL) in HEK-293 cells specifically expressing hTLR8. In brief, these cells have an NF-κB/AP-1-inducible secreted embryonic alkaline phosphatase (SEAP) reporter gene which allows monitoring of signaling via TLR8. After incubation for 16-24 hours, supernatant harvested from the cells is mixed with media containing SEAP-substrate and the optical density (OD) is measured at 650 nm using a spectrophotometer. FIG. 3C: As in FIG. 3B, HEK cells specifically expressing hTLR2, hTLR7, or hTLR8, in addition to the HEK-Null cell line carrying only the reporter gene, were stimulated with the indicated concentrations of PVP-179. […] PVP-179 activity is expressed as a percentage of NF-κB induced in the cells stimulated with TNF (positive control for each cell line). […] The supernatants were harvested after 20-24 hours and SEAP production (to assess NF-κB activity) was measured using QUANTIBlue assay. […]

In test [2] the test system is murine bone marrow-derived dendritic cells. The experiment in a line: mTNF and mIL-6 ELISA in murine bone-marrow-derived dendritic cells. The class given is cell-based. As to conditions: murine BMDCs, 18 hours. The method, then:
FIGS. 4A-4D. PVP-179 activates human macrophages and dendritic cells. FIGS. 4A-4B: Murine mononuclear cells were isolated from bone marrow and induced differentiation into dendritic cells (with GM-CSF and IL-4). After 5 days of culturing, these bone-marrow-derived dendritic cells (BMDCs) were stimulated with PVP-179 or MPLA for 18 hours at indicated concentrations. The supernatants were analyzed via ELISA where each dot in the graph represents the mean production of mTNF (FIG. 4A) and mIL-6 (FIG. 4B). N=6 for PVP-179, N=3 for MPLA. Two-way Anova was performed to determine statistical significance. The comparisons shown are compared to control group (0 M PVP-179). FIGS. 4C-4D: PBMCs were isolated from blood of adult human donors. CD14+ monocytes were specifically isolated from the PBMCs and were then cultured in 10% autologous plasma and induced to differentiate into macrophages with M-CSF (FIG. 4C), or dendritic cells with GM-CSF and IL-4 (FIG. 4D). After 5 days, cells were harvested from each differentiated cell type (macrophages: Mφ; dendritic cells: MoDCs) and a 96-well plate was setup with 100,000 cells/well. Cells were then stimulated with indicated concentrations of PVP-179 or R848 (33 μM) or LPS (100 ng/mL). After 20-24 hours of incubation, supernatants were harvested and applied to TNF ELISA. N=2 donors.
(In an ELISA, binding on a coated surface is turned into a signal by an enzyme label.)

Test [3] concerns human monocytic THP-1 cell line. Put plainly: High throughput screen in THP-1 cells (NF-kB/IRF-inducing and/or leukocyte adherence-inducing activity). The class given is cell-based. The text has this: (§1) FIGS. 1A-1D. Discovery of PVP-179 in a human PBMC high-throughput screen. FIG. 1A: A graphical overview depicting screen approach. From a high-throughput screen previously conducted, 310 molecules were identified to be activators of either THP-1 cells (monocyte cell line) or primary human adult peripheral blood mononuclear cells (PBMCs). These 310 molecules were assembled into a stimulation plate and then applied to the PBMCs of 4 elderly donors (cultured with 10% autologous plasma). […] Z scores were averaged across all four elderly donors. The Z score and chemical structure for PVP-179 are indicated. FIG. 1C: Human adult or elderly PBMCs (cultured with 10% autologous plasma) were stimulated with PVP-179 in a two-point concentration titration manner. After 18 hours of incubation, supernatant was processed for ELISA-based measurement of TNF production. N=4 donors. FIG. 1D: As in FIG. 1C, the supernatants were collected, and 14 cytokines were measured by multiplex assay. […] N=4 donors each.
(§2) In a previous high throughput screen (HTS), a number of hit molecules were identified as potentially activating human leukocytes. […] A separate pilot screen of 9,000 of the molecules for TNF-inducing activity in adult human peripheral blood mononuclear cells (PBMCs) subsequently identified 133 molecules. […]

In test [4] the test system is Balb/c murine model of SARS-CoV-2 immunization. The class given is in vivo, BALB/c mice. The conditions noted are these: for rSpike immunogenicity: prime Day 0, boost Day 14.
The test system of test [5] is human elderly PBMCs. Put plainly: Screen of 310 molecules for TNF production by human elderly PBMCs. The class given is cell-based. The conditions noted are these: elderly PBMCs of 4 donors, 10% autologous plasma.
From the text: as §1, §2

Molecules are shown by their SMILES. Where two headings read alike, the source gives them in different places.

Turning to `CCCCn1c(/N=C/c2nc3ccccc3n2C)nc2ccccc21` [PVP-179], the “NF-κB activity in null HEK cells” value in test [1] was “no activity was detected”. Also, in test [2], the “cytokine inducing activity (mTNF, mIL-6)” value is listed as “minimal cytokine inducing activity”. Besides, in test [3], the “hit call in original THP-1 screen” value was “positive hit”. Further, the adjuvant activity result in test [4] (adult mice) is recorded as “adjuvant activity”. The rSpike immunogenicity entry in test [4] (adult mice (12 weeks)) and in test [4] (aged mice (52 weeks/12 months old)) was “enhanced rSpike immunogenicity” throughout. For the same compound, in test [4] (aged mice), the antibody subtype enhanced entry was “primarily enhanced the production of anti-rSpike IgG1 subtype antibodies”. The “antibody titers compared to rSpike alone” value in test [4] (aged mice, Day 28 serum) was 2-5 fold. In addition, in test [5], the “TNF production, screen hit call” value is “robust TNF-inducing hit”.
